Earlier results on two molecules are cited in PMC9307173, “OX2R-selective orexin agonism is sufficient to ameliorate cataplexy and sleep/wake fragmentation without inducing drug-seeking behavior in mouse model of narcolepsy” (PLoS ONE, 2022).

“Also recorded” adds a separate entry of the source.

One series relates to addiction-like behaviors. The conditions noted are these: OX1R-selective antagonist. From the text:
Orexin also activates the reward system. Orexin neurons in the LH project to the dopaminergic reward system in the ventral tegmental area (VTA), and promote the dopamine release in the nucleus accumbens and the prefrontal cortex, potentially inducing addiction-like behaviors and reinforcing effects. Orexin-mediated neural signaling also contributes to the development of addiction to drugs of abuse such as cocaine, morphine and nicotine. Anatomically, both OX1R and OX2R are present in VTA, with dopaminergic neurons predominantly expressing OX1R ...

For series [1], the system named is orexin knockout and orexin neuron-ablated mice. Also noted: method as in PMID 28507129.

In the case of `Cc1nc2ccc(NC(=O)Nc3ccnc4cccnc34)cc2o1` [SB334867], the “addiction-like behaviors induced by drugs of abuse or OXA (in words)” value with addiction-like behaviors is listed as “inhibited”.
Consider `COc1ccc(-c2cccc(C(=O)N(C)C)c2)cc1S(=O)(=O)Nc1cccc(NCCNC(=O)c2ccccc2N(C)C)c1` [YNT-185], for which, in series [1] (mouse models of narcolepsy), the “wakefulness promotion (in words)” value is given as “promotes wakefulness”. Besides, the “cataplexy-like episodes (in words)” value in series [1] (mouse models of narcolepsy / OXKO mice) is on record as “effectively suppressed cataplexy-like episodes; also recorded: ameliorates cataplexy-like episodes”. Besides, in series [1] (narcoleptic model mice / OXKO mice), the “wake fragmentation (in words)” value is reported as “did not appreciably ameliorate the wake fragmentation; also recorded: did not sufficiently suppress the active-phase fragmentation of wakefulness”.
